The subject of data set [1] is ARH-77 cells. The data set can be described thus: Subcutaneous scid/ARH-77 xenograft, prophylactic model. Particulars: 20 mg/kg twice weekly i.p., commencing one day after tumor cell inoculation.
Description: Tumor cells were injected subcutaneously into the left flank of SCID mice. Mice received twice-weekly intraperitoneal injections with BI-505, control antibody or rituximab at doses of 20, 2 and/or 0.2 mg/kg commencing one day after tumor cell inoculation. There were 8 to 10 animals per treatment group. […] Statistical significance was calculated relative to control antibody treatment using Kruskal-Wallis Test (Nonparametric ANOVA) with Dunn's Multiple Comparisons Test (tumor volume) or the log-rank test (mouse survival) using Graphpad Instat or Prism software, respectively. Statistical significance was considered for *p<0.05, **p<0.01, and ***p<0.001.
Tumor cells were injected subcutaneously into the left flank of SCID mice. Mice received twice-weekly intraperitoneal injections with BI-505 at doses of 0.02-20 mg/kg commencing day after tumor cell inoculation. There were 8-10 animals per treatment group. […] Statistical significance was calculated relative to control antibody treatment using Kruskal-Wallis Test (Nonparametric ANOVA) with Dunn's Multiple Comparisons Test (tumor volume) or the log-rank test (mouse survival) using Graphpad Instat or Prism software, respectively. Statistical significance was considered for *p<0.05, **p<0.01, and ***p<0.001. Graphs illustrate representative experiments out of several performed.
(FIG. 7A) ARH-77 cells were injected subcutaneously into the left flank of SCID mice (n=8 per group). Mice were treated with the different BI-505 isotypes twice weekly. […] Statistical significance was calculated relative to control antibody treatment using Kruskal-Wallis Test (Nonparametric ANOVA) with Dunn's Multiple Comparisons Test. Statistical significance was considered for *p<0.05, **p<0.01, and ***p<0.001.
Mice were anaesthetized with a mixture of sevofluran and oxygen prior to myeloma cell inoculation and 1-5×10^6 myeloma cells were then subcutaneously injected in a volume of 100 μl into the left flank.
Data set [2] has as its system ICAM-1 expressing tumor cell lines. In words: Complement-dependent cytotoxicity in tumor cell lines. It counts as cell-based. Particulars: panel of ICAM-1 expressing tumor cell lines; human serum. Here is the method: Target cells were harvested and incubated in RPMI medium with antibodies at 5 μg/mL or at titrated concentrations between 0.01-100 μg/mL for 60 min on ice. Cells were thereafter washed and resuspended in cold medium before dispension into flow cytometry tubes. Treatments were performed in triplicates. Human serum, normal or heat-inactivated, (Sigma, Sweden) was added to tubes and the samples were incubated for 2 h at 37° C. After completed incubation ToPo-Pro-3 was added at a final concentration of 0.3 μM and cells were analyzed for membrane permeabilization using flow cytometry.

A further data set deals with ARH-77 tumors. In words: Subcutaneous scid/ARH-77 xenograft, established (palpable tumor) model. The note with it: IgG B11 even at 0.2 mg/kg (100-fold lower dose than rituximab).
The subject of data set [3] is HUVEC and HMVEC endothelial cells. In words: PCD in normal endothelial cells. It counts as cell-based. Particulars: resting or activated (IFN-γ) cells. Here is the method:
Target cells were seeded in 96-well culture plates at a density of 2×10^6 cells/mL culture medium. Titrated concentrations of IgG1 B11 or different negative and positive control antibodies were added to the cells, in the absence or presence of anti-human Fab fragment (Jackson ImmunoResearch) for cross-linking. The cells were then incubated for 16 hours at 37° C. in a humidified atmosphere of 5% CO2. The cells were harvested and stained for Annexin V-488/Propidium Iodide (Invitrogen, Sweden) and analysed using flow cytometer (FACS Calibur, BD Bioscience).

In data set [4] the test system is ICAM-1 on RPMI-8226 tumor cells. The data set can be described thus: ICAM-1 expression on MM cells isolated from treated mice (flow cytometry). It counts as in vivo, SCID mice. Particulars: disseminated RPMI-8226 model, cells collected at termination. The procedure:
Organs for FACS analysis were collected at scarification of mice, and cells from tissues were prepared by mechanistic dissociation and dispase/collagenase enzymatic digestion (Gibco, France). Cells were stained with anti-human CD38 antibody (PerCP-Cy5, Becton Dickinson), an anti-mouse CD45 (PE, Becton Dickinson) and human ICAM-1 (BI-505 IgG1 AF647, BioInvent) and incubated in the dark for 15 min at room temperature. After the incubation, cells were washed twice and the surface fluorescence of cells was analyzed with a flow cytometer apparatus (LSRII) at the Flow Cytometry Facility of the University of Burgundy.
The health status and behavior of mice was recorded every day and body weight of mice was recorded twice a week. […] Upon termination, bone marrow, spinal cord, adrenal glands and kidneys were collected and examined for ICAM-1 expression on tumor cells. To distinguish cells of human versus murine origin, an anti-mouse CD45 mAb was used CD45. […] In addition, cells were stained with AF647 conjugated anti ICAM-1 mAb and thereafter analyzed in a FACS LSRII. Bone marrow was mechanically dissociated to a single cell suspension whereas adrenal glands, kidneys and spinal cord cells were prepared using a combination of mechanistic dissociation and dispase/collagenase digestion (Gibco, France). Prior to the experiment, dispase and collagenase treatments were shown not to effect ICAM-1 levels on MM cell lines.

Data set [5] deals with ARH-77 cells. The data set can be described thus: Disseminated scid/ARH-77 model of multiple myeloma. Particulars: i.v. on Days 7, 10, 13, 16; antibody 2 mg/kg, bortezomib 0.5 mg/kg; vs control. It is filed as in vivo, scid mice. Here is the method: ARH-77 cells or RPMI-8226 were injected intraveniously into the SCID mice. (FIG. 6A) ARH-77 model. Animals received intravenous injections with antibody at 2 mg/kg or bortezomib (Velcade) at 0.5 mg/kg on Days 7, 10, 13, and 16 (as indicated by arrows in the graph). (FIG. 6B) RPMI-8226-model. BI-505 or control mAb was administered i.v at 2 mg/kg, twice weekly for 8 weeks, bortezomid, at 1 mg/kg, once weekly for 8 weeks, lenalidomide p.o with 2 mg/kg for 2 cycles consisting of 5 days of treatment and 2 days of wash out, melphalan i.v at 3 mg/kg, once weekly for 8 weeks, and dexamethasone (DXH) at 6 mg/kg/inj 3 times/week for 2 consecutive weeks. There were 6-10 mice per treatment group. Statistical significance was calculated using Log-rank Graphpad Prism software and determined at ***p<0.001. (FIG. 6C) To study the ICAM-1 level on human cells, the cells from different organs were stained and gated for CD38+/mCD45−/BI-505+. Left panel indicates the percentage of BI-505 positive cells in CD38+/mCD45 population and right panel the mean fluorescent intensity of the positive cells.
The anti-myeloma effect of BI-505 was examined in a disseminated model of multiple myeloma. The early and advanced disseminated model of multiple myeloma was performed at Oncodesign, Dijon, France. Briefly: 1×10^6 (early) or 5×10^6 (advanced) ARH-77 tumor cells in 200 μL of RPMI 1640 were injected intravenously (i.v) into the caudal vein of female scid mice (D0). Tumor cell injections were performed twenty four to forty eight hours after a whole body irradiation of mice (1.8 Gy, ^60Co, INRA, BRETENNIERES). The treatment was started at D5 (RPMI-8226 model) or D7 ([…] model) except alkeran which was administered at D10. B11 or control mAb was administered i.v. at 2 mg/kg, twice weekly for 8 weeks, bortezomib, at 1 mg/kg, once weekly for 8 weeks, lenalidomide p.o with 2 mg/kg for 2 cycles consisting of 5 days of treatment and 2 days of wash out, melphalan i.v. at 3 mg/kg, once weekly for 8 weeks and dexamethasone at 6 mg/kg, injected 2 consecutive weeks.
The disseminated model of scid/ARH-77 is a well-established experimental model that resembles human multiple myeloma disease progression and disease manifestation in many respects (33). We utilized this model to further characterize IgG B11 anti-myeloma activity (FIG. 6A). Intravenous injection of irradiated scid mice with 1×10^6 ARH-77 cells was previously shown to result in their dissemination and establishment in mouse bone-marrow, and resulting osteolytic bone-lesions and hypercalcemia, and ultimately, in animal paralysis or difficulty of breathing at which time animals were immediately sacrificed. […]

Data set [6] deals with B lymphoma cell line (CL-01). The data set can be described thus: ADCC of tumor cells with human NK effector cells. It counts as cell-based. Particulars: human Natural Killer effector cells. The text has this:
Buffy coats from human donors (ordered through Blodcentralen, Lund) were used to isolate peripheral blood mononuclear cells (PBMCs), and subsequently NK cells. Briefly, peripheral blood components were separated using Ficoll Paque PLUS (Amersham Biosciences, Sweden) in LeucoSep tubes (Greiner Bio-One). The PBMC fraction was removed and thoroughly washed in ice-cold DPBS (Invitrogen), before magnetic labeling and separation of the NK cell population using positive or negative NK cell isolation kits and MACS LS columns (Miltenyi Biotec). The purity of the obtained NK cell fractions was analyzed using flow cytometry, after staining with α-CD56 antibodies (BD Biosciences). Target cells were harvested, and incubated in medium with or without the respective antibodies (2 μg/mL) for 60 min on ice. Cells were thereafter washed and resuspended in cold medium before dispension into FACS tubes. Subsequently, isolated NK cells were diluted in ADCC medium and dispensed together with the respective antibody-coated target cells at varying effector/target cell ratios (40:1, 20:1, 5:1 and 1:1). All experiments were performed in triplicates. After completed incubation ToPo-Pro-3 dye and counting beads (Invitrogen) were added and cells were analyzed for membrane permeabilization using flow cytometry.

A further data set has as its target T1, mouse FcγRIV (Mus musculus, UniProt A0A0B4J1G0).
T1 construct: made in house; host or cells: HEK293E (transient)
T1 sequence (A0A0B4J1G0 21-249): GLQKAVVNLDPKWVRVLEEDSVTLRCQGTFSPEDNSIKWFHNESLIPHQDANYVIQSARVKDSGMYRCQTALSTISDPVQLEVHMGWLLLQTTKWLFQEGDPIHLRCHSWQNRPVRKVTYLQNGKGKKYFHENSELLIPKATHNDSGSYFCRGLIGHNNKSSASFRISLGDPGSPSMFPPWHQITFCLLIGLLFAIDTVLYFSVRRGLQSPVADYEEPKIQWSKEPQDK
The data set can be described thus: Biacore binding of BI-505 isotype variants to mouse FcγRIV. The procedure: (§1) His-tagged human FcγRIIIa or mouse FcγRIV were expressed transient in adherent HEK293E cells, purified using Ni-NTA chromatography and characterized using SDS-PAGE and/or Biacore. Surface plasmon resonance (SPR) measurements were perfomed using a Biacore 3000 instrument. Goat α-human-F(ab)′2 F(ab)′2 fragment (Jackson laboratories) was immobilised with a CM-5 chip using a standard amine coupling protocol. IgG1 B11, Iga4 B11, or 297Q B11 were diluted to 15 and 60 μg/mL respectively and added to the surface at […] for 3 min. His tagged human FcγRIIIa or mouse FcγRIV were pre-incubated with an α-HIS antibody (R&D Systems) at a 2:1 molar ratio before addition to the chip surface, […], 1 min. After each cycle the surface was regenerated twice with glycine buffer pH 1.7.
Background: In SPR one partner is held on a chip, and binding of the other changes the refractive index at the surface.

A short description of data set [7]: Mouse serum antibody levels by ELISA at end of xenograft experiment. It is filed as in vivo. Particulars: dose 2 mg/kg; mouse serum at end of experimentation. Here is the method: We next performed a dose-titration experiment to establish IgG B11 in vivo potency and the minimal dose achieving maximal anti-tumor activity, using the scid/ARH-77 model system. […] Mouse serum antibody trough concentrations were determined by ELISA at the end of experimentation. Trough antibody concentrations were then plotted against percent of maximal in vivo anti-tumour activity, and against percent of maximal ICAM-1 receptor occupancy and tumour cell PCD at corresponding antibody concentrations in vitro (FIGS. 3C, 3D, 3E, 3F and 3G). Strikingly, a near perfect correlation between antibody concentration and in vitro tumour cell receptor occupancy, in vitro tumor cell PCD, and in vivo anti-tumour activity was observed, consistent with ICAM-1 dependent direct cell cytotoxicity underlying in vivo anti-tumour activity.
A general note: An ELISA detects its analyte on a solid surface through an enzyme-linked reagent.

Another data set has as its target T2, human FcγRIIIa (Homo sapiens, UniProt P08637).
T2 construct: made in house; host or cells: HEK293E (transient)
The data set can be described thus: Biacore binding of BI-505 isotype variants to human FcγRIIIa. Here is the method: as §1

This is an account of results in patent US20160280788A1, “USE OF ANTIBODIES AGAINST ICAM-1 IN THE TREATMENT OF PATIENTS WITH RELAPSED CANCER” (BioInvent International AB, priority 2010, published 2016).

T2 sequence (P08637 17-254): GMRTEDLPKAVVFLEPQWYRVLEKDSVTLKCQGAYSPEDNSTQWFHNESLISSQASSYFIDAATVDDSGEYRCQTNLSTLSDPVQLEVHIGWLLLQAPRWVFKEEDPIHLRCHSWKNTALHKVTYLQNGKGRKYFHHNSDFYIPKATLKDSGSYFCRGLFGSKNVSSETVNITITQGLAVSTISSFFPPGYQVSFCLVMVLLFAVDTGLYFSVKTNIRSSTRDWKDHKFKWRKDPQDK
Description for ARH-77 tumors: Mice were anaesthetized with a mixture of sevofluran and oxygen prior to myeloma cell inoculation and 1-5×10^6 myeloma cells were then subcutaneously injected in a volume of 100 μl into the left flank. Treatment with antibodies by intraperitonial (i.p.) injections was started either the day after cell inoculation (prophylactic model) or when tumors reached a size of approximately 100 mm^3 (established model). Antibodies were administrated in PBS in a total volume of 200 μL. Treatment with PBS or isotype control was used as control. Tumors were measured with a digital calliper and the tumor volumes were calculated according to formula: width^2×length×0.52. Animals were sacrificed when the tumor sizes reached the ethical limit of 1.5 cm. Surviving mice were sacrificed after a maximum of 5 months. Blood samples collected from the vena cava were centrifuged at 2500 g for 15 min to obtain serum and the samples were stored at −20° C. Tumors were removed for immunohistochemistry, snap frozen and were kept at −85° C.

As for rituximab [reference compound], in the data set with ARH-77 cells [1], the tumor growth entry is “significant anti-tumor activity albeit less efficaciously”. Also, the “induction of CDC” value in data set [2] is listed as “effectively induced CDC”. Also, in the data set on ARH-77 tumors, the animal survival entry is recorded as “incapable of reducing tumor growth or promoting animal survival” and the tumor growth entry is given as “incapable of reducing tumor growth”.

`CC(=O)O[C@H]1C(=O)[C@@]2(C)[C@H]([C@H](OC(=O)c3ccccc3)[C@]3(O)C[C@H](OC(=O)[C@H](O)[C@@H](NC(=O)c4ccccc4)c4ccccc4)C(C)=C1C3(C)C)[C@]1(OC(C)=O)CO[C@@H]1C[C@@H]2O` [paclitaxel, reference compound]: the “PCD induction in normal endothelial cells” value in data set [3] is “induced significant endothelial cell”.

In the case of `N[C@@H](Cc1ccc(N(CCCl)CCCl)cc1)C(=O)O` [AIKERAN, Melphalan], the “ICAM-1 expression on tumor cells collected from treated mice” value (“ICAM-1 expression” for short) in data set [4] is “unchanged, high levels”.

Turning to `CC(C)C[C@H](NC(=O)[C@H](Cc1ccccc1)NC(=O)c1cnccn1)B(O)O` [bortezomib, reference compound], in the data set on ARH-77 cells [5], the animal survival result is “did not significantly enhance animal survival” and the “time to symptomatic disease onset” value was “insignificantly delayed disease onset”. For the same molecule, in [4], the “ICAM-1 expression” value is given as “unchanged, high levels”.

Turning to `Nc1cccc2c1CN(C1CCC(=O)NC1=O)C2=O` (stereo not drawn) [Revlimid, Lenalidomide], the “ICAM-1 expression” value in data set [4] is “unchanged, high levels”.

B1: IgG4: human IgG4 isotype switch variant of B11 (antibody, V domains shown)
VH: EVQLLESGGGLVQPGGSLRLSCAASGFTFSNAWMSWVRQAPGKGLEWVAFIWYDGSNKYYADSVKGRFTISRDNSKNTLYLQMNSLRAEDTAVYYCARYSGWYFDYWGQGTLVTVSS
VL: QSVLTQPPSASGTPGQRVTISCTGSSSNIGAGYDVHWYQQLPGTAPKLLIYDNNNRPSGVPDRFSGSKSGTSASLAISGLRSEDEADYYCQSYDSSLSAWLFGGGTKLTVLG
On to B1, for which the “ADCC of target tumor cells” value in [6] is “did not mediate ADCC”. In addition, in the data set with mouse FcγRIV, the “binding to murine FcγRIV” value is on record as “but not IgG4 or N297Q-mutant, showed strong binding”. The “In vivo IgG Levels (serum antibody titers)” value in data set [7] worked out at 13 ± 3.1 µg/mL. Also, the “binding to human FcγRIIIa” value in the data set with human FcγRIIIa is given as “did not bind to human FcγRIIIa”.

B2: N297Q-mutant: FcγR-binding deficient mutant IgG1 isotype switch variant of B11 (antibody, V domains shown)
VH: B1 VH
VL: B1 VL
On to B2, for which the “ADCC of target tumor cells” value in data set [6] is given as “did not mediate ADCC”. Also, in the data set with mouse FcγRIV, the “binding to murine FcγRIV” value was “but not IgG4 or N297Q-mutant, showed strong binding”. In addition, in data set [7], the “In vivo IgG Levels (serum antibody titers)” value stood at 9.6 ± 3. μg/mL. The “binding to human FcγRIIIa” value in the data set with human FcγRIIIa is “did not bind to human FcγRIIIa”.
